Measured values as given in patent publication US20250170106A1, “USE OF SU3327 IN PREPARATION OF MEDICAMENT FOR ENHANCING EFFICACY OF POLYMYXIN AGAINST BACTERIAL INFECTION” (XIAMEN HANLIXIN PHARMACEUTICAL CO., LTD., priority 2022, published 2025).

Assays:
[1] = test system: Escherichia coli B2 (E. coli B2) containing MCR-1; experiment: MIC / checkerboard assay; type: cell-based; conditions: for MIC after use in combination: Polymyxin E + SU3327 in combination, checkerboard; for MIC: drug alone
Description: (§1) The strains used in the tests, the strain Escherichia coli ATCC 25922 (E. coli 25922) and the strain Staphylococcus aureus ATCC 29213 (S. aureus 29213), were purchased from China Veterinary Culture Collection Center. Methicillin Resistant Staphylococcus Aureus USA300 (ATCC BAA-1717) was purchased from American Type Culture Collection. The strains used in the other experiments, the strains Escherichia coli B2 (E. coli B2), Escherichia coli GZP08-8 (E. coli GZP08-8), Klebsiella pneumoniae 1202 (K. pneumoniae 1202), Klebsiella pneumoniae 1202-45-5 (K. pneumoniae 1202-45-5), Salmonella 1-5 (Salmonella 1-5), and Shigella Y (Shigella Y) were all from National Center for Veterinary Drug Safety Evaluation of China Agricultural University, with Escherichia coli B2 (E. coli B2), Escherichia coli GZP08-8 (E. coli GZP08-8), Klebsiella pneumoniae 1202-45-5 (K. pneumoniae 1202-45-5), and Salmonella 1-5 (Salmonella 1-5) as polymyxin resistant strains containing MCR-1. Klebsiella pneumoniae 1202 (K. pneumoniae 1202) and Shigella Y (Shigella Y) were strains clinically sensitive to colistin.
(§2) The MIC of SU3327 administered alone was detected with dilution by factors. Subsequently, tests were performed with SU3327 alone, Polymyxin E (Colistin) alone, and in combination, respectively, in sterile, 96-well microplates according to checkerboard assays for the joint inhibitory activities against the above-mentioned strains, and further Fractional Inhibitory Concentration Index (FICI) was calculated. FICI of SU3327 and Polymyxin E=MIC (Polymyxin E in combination)/MIC (Polymyxin E)+MIC (SU3327 in combination)/MIC (SU3327 alone). If FICI≤0.5, synergy was identified; if 0.5<FICI≤1, an additive effect was identified; and if […], an irrelevant effect was identified.

[2] = test system: Escherichia coli GZP08-8 (E. coli GZP08-8); experiment: MIC / checkerboard assay; type: cell-based; conditions: for MIC after use in combination: Polymyxin E + SU3327 in combination, checkerboard; for MIC: drug alone
Description: as §1, §2

[3] = test system: Escherichia coli strain ATCC 25922 (E. coli 25922); experiment: MIC / checkerboard assay; type: cell-based; conditions: for MIC after use in combination: Polymyxin E + SU3327 in combination, checkerboard; for MIC: drug alone
Description: as §1, §2

[4] = test system: Klebsiella pneumoniae 1202 (K. pneumoniae 1202); experiment: MIC / checkerboard assay; type: cell-based; conditions: for MIC after use in combination: Polymyxin E + SU3327 in combination, checkerboard; for MIC: drug alone
Description: as §1, §2

[5] = test system: Klebsiella pneumoniae 1202-45-5 (K. pneumoniae 1202-45-5); experiment: MIC / checkerboard assay; type: cell-based; conditions: for MIC after use in combination: Polymyxin E + SU3327 in combination, checkerboard; for MIC: drug alone
Description: as §1, §2

Salmonella 1-5 = experiment: MIC / checkerboard assay; type: cell-based; conditions: for MIC after use in combination: Polymyxin E + SU3327 in combination, checkerboard
Description: as §1, §2

Shigella Y = experiment: MIC / checkerboard assay; type: cell-based; conditions: for MIC after use in combination: Polymyxin E + SU3327 in combination, checkerboard
Description: as §1, §2

[6] = test system: Staphylococcus Aureus USA300 (S. aureus USA300); experiment: MIC / checkerboard assay; type: cell-based; conditions: for MIC after use in combination: Polymyxin E + SU3327 in combination, checkerboard; for MIC: drug alone
Description: as §1, §2

[7] = test system: Staphylococcus aureus strain ATCC 29213 (S. aureus 29213); experiment: MIC / checkerboard assay; type: cell-based; conditions: for MIC after use in combination: Polymyxin E + SU3327 in combination, checkerboard; for MIC: drug alone
Description: as §1, §2

K. pneumoniae 1202-45-5 [8] = experiment: In vitro bacterial growth (bactericidal) curve; type: cell-based, Klebsiella pneumoniae; conditions: continuous treatment for 24 h, Polymyxin E 1 μg/mL, SU3327 20 μg/mL, alone or combined
Experimental: (§3) 6.0 g powdered beef extract, 1.5 g soluble starch, 17.5 g acid hydrolysate of casein, and 17.0 g agar were weighed, to which 900 mL distilled water was added, with the pH adjusted to 7.3, and the volume to 1000 mL. The mixture was subject to autoclave at 121° C. for 15 minutes, and then cooled to 50° C., poured into a sterile plate, and dried for later use.
(§4) Following culturing of K. pneumoniae 1202 and K. pneumoniae 1202-45-5 in BHI broth for 6-8 hours, the bacteria were diluted to a concentration of 10^6 colony count using a turbidimeter.
(§5) For K. pneumoniae 1202, drug treatment concentrations were set as follows: Polymyxin E (0.25 μg/mL), SU3327 (10 μg/mL), SU3327 (10 μg/mL)+Polymyxin E (0.25 μg/mL); the bacteria in control group were treated with a solvent, 0.1% DMSO. For K. pneumoniae 1202-45-5, drug treatment concentrations were set as follows: Polymyxin E (1 μg/mL), SU3327 (20 μg/mL), SU3327 (20 μg/mL)+Polymyxin E (1 μg/mL). 100 μL of a bacterial solution was applied on an agar plate at 1 h, 3 h, 6 h, 12 h and 24 h post drug treatment, respectively, and cultured for at least 16 h for a colony count.

K. pneumoniae 1202 = experiment: In vitro bacterial growth (bactericidal) curve; type: cell-based, Klebsiella pneumoniae; conditions: continuous treatment for 24 h, Polymyxin E 0.25 μg/mL, SU3327 10 μg/mL, alone or combined
Experimental: as §3, §4, §5

K. pneumoniae 1202-45-5 [9] = experiment: Thigh infection model of neutropenic BALB/c mice infected with drug resistant bacteria; type: in vivo; conditions: 10 mg/kg body weight each drug, intraperitoneal, 24 hour post infection; for bacteria loading in the thigh of the mice: twice 8 h apart, K. pneumoniae 1202-45-5
Experimental: In order to avoid the influence of mice's own immunity on the experiments, all mice were administered in advance with cyclophosphamide twice, four days and one day before infection, respectively, 100 mg/kg intraperitoneal injection each time, resulting in neutropenia and immune deficiency in the mice. 24 female BALB/c mice (weighing about 20 g) aged 6-8 weeks old were prepared. K. pneumoniae 1202-45-5 in logarithmic phase was re-suspended with a PBS buffer to prepare a suspension at the concentration of 1×10^7 CFU/mL; in the mice, the total amount of bacteria injected into the thigh of each mouse was 1×10^6 CFUs in the end. Then they were randomly divided into model control group (solvent treatment group), Polymyxin E treatment group (10 mg/kg body weight), SU3327 treatment group (10 mg/kg body weight), and combined treatment group of SU3327 (10 mg/kg body weight)+Polymyxin E (10 mg/kg body weight) (6 mice in each group). The treatments are detailed as follows:
Solvent control treatment group: 0.1 mL of the suspension of K. pneumoniae 1202-45-5 was intramuscularly injected into a mouse in the thigh on the right side of its abdominal cavity; one hour later, the mouse was intraperitoneally injected with 200 μL of a PBS buffer.
Polymyxin E treatment group: 0.1 mL of the suspension of K. pneumoniae 1202-45-5 was intramuscularly injected into a mouse in the thigh on the right side of its abdominal cavity; one hour later, the mouse was intraperitoneally injected with 200 μL of a solution of drug, Polymyxin E (1 mg/mL); the final dose was 10 mg/kg body weight;
SU3327 treatment group: 0.1 mL of the suspension of K. pneumoniae 1202-45-5 was intramuscularly injected into a mouse in the thigh on the right side of its abdominal cavity; one hour later, the mouse was intraperitoneally injected with 200 μL of a solution of drug, SU3327 (1 mg/mL); the final dose was 10 mg/kg body weight; […]

JNK = conditions: substrate-competitive JNK inhibitor; cited from earlier work
JNK and JIP = conditions: read-out: IC50 (protein interaction between JNK and JIP); cited from earlier work
p38α = p38α (Homo sapiens, UniProt Q16539); conditions: cited from earlier work
Sequence of p38α (Q16539 whole entry): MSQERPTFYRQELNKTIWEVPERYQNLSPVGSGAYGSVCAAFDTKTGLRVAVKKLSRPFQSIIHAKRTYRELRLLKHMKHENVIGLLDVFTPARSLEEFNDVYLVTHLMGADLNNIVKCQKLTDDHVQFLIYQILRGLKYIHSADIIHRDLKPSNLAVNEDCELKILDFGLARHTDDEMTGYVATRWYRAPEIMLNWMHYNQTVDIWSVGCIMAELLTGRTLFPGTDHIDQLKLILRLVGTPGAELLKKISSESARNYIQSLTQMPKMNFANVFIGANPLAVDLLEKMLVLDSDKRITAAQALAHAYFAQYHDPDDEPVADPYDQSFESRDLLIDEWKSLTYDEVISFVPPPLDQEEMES

Akt = conditions: cited from earlier work

| Compound | MIC after use in combination [1] [µg/mL] | MIC [1] [µg/mL] | MIC after use in combination [2] [µg/mL] | MIC [2] [µg/mL] | MIC after use in combination [3] [µg/mL] | MIC [3] [µg/mL] | MIC after use in combination [4] [µg/mL] | MIC [4] [µg/mL] | MIC after use in combination [5] [µg/mL] | MIC [5] [µg/mL] | MIC after use in combination (Salmonella 1-5) [µg/mL] | MIC after use in combination (Shigella Y) [µg/mL] | MIC after use in combination [6] [µg/mL] | MIC [6] | MIC after use in combination [7] [µg/mL] | MIC [7] | bacterial colony counts (K. pneumoniae 1202-45-5 [8]) [Log 10 CFU/mL] | bacterial colony counts (K. pneumoniae 1202) [Log 10 CFU/mL] | bacteria loading in the thigh of the mice (K. pneumoniae 1202-45-5 [9]) [Log 10 CFU/mL] | further results |
| --- | --- | --- | --- | --- | --- | --- | --- | --- | --- | --- | --- | --- | --- | --- | --- | --- | --- | --- | --- | --- |
| Nc1nnc(Sc2ncc([N+](=O)[O-])s2)s1 [SU3327] | 2.5 | 20 | 2.5 | 10 | 5 | 10 | 2.5 | 20 | 5 | 20 | 2.5 | 2.5 | 1.25 | 5 µg/mL | 2.5 | 5 µg/mL | 6.65 | 8.35 | 6.55 | MIC (Salmonella 1-5; drug alone): 20 µg/mL; MIC (Shigella Y; drug alone): 5 µg/mL; IC50 (JNK): 700 nM; IC50 (JNK and JIP): 239 nM; activity for p38α kinase (p38α): low activity; activity for Akt kinase (Akt): low activity |
| Polymyxin E | 0.5 | 8 | 0.25 | 16 | 0.0625 | 0.125 | 0.0625 | 1 | 0.25 | 16 | 1 | 0.032 | 32 | more than 128 μg/mL | 64 | more than 128 μg/mL | 9.3 | 8.9 | 6.82 | bacteria loading in the thigh compared with solvent control group (K. pneumoniae 1202-45-5 [9]): not significantly different |
